Laboratory results published in US20150225794A1, “METHOD OF PREDICTING A PREDISPOSITION TO QT PROLONGATION” (Vanda Pharmaceuticals, Inc., priority 2009, published 2015).

Key:
QT interval [1] = test: ABCC2 SNP genotypes and QT prolongation following administration of iloperidone; format: in vivo, human; conditions: QTcF
Method: (§1) Since the QT interval changes with changes in heart rate, the QT interval is often measured as a corrected QT (QTc) interval. Any number of formulas may be employed to calculate the QTc, including, for example, the Fridericia formula (QTcF), the Bazett formula (QTcB), and the Rautaharju formula (QTp), among others. In the studies described herein, QT was calculated using the Fridericia formula. However, the present invention includes the use of any such formula or method for calculating a QTc or an uncorrected QT.

QT interval [2] = test: QT prolongation and rs7067971 genotype in individuals given oral iloperidone for two weeks; format: in vivo, human; conditions: for High QT, + test (number of individuals) / Low QT, + test (number of individuals): rs7067971 GG; for High QT, + test (number of individuals) / Low QT, + test (number of individuals) / High QT, − test (number of individuals) / Low QT, − test (number of individuals): 24 mg/day B.I.D. oral, two weeks; for High QT, − test (number of individuals) / Low QT, − test (number of individuals): rs7067971 non-GG; for Odds Ratio: rs7067971 GG test
Method: as §1, with “QT. Using the genotypes at the SNP loci above, it is possible, with a high degree of certainty, to predict an individual's predisposition to QT prolongation.” for “QT.”

**Q.** With COc1cc(C(C)=O)ccc1OCCCN1CCC(c2noc3cc(F)ccc23)CC1 [iloperidone] as the molecule, how does the “Lowest QTc change (genotype)” value (QT interval [1]; SNP_A-2004488, rs2256678, allele A C, allele B T) read?
**A.** The value was “non-BB”.

**Q.** What about the “Lowest QTc change (genotype)” value (QT interval [1]; SNP_A-2068049, rs7067971, allele A A, allele B G) of the same molecule?
**A.** The value was “non-BB”.

**Q.** What about the “Lowest QTc change (genotype)” value (QT interval [1]; SNP_A-2253129, rs4919395, allele A C, allele B T) of the same molecule?
**A.** Its value is “non-BB”.

**Q.** And the “Lowest QTc change (genotype)” value (QT interval [1]; SNP_A-2262953, rs2804398, allele A A, allele B T)?
**A.** Its value is “non-BB”.

**Q.** And the “Lowest QTc change (genotype)” value (QT interval [1]; SNP_A-4268713, rs2256700, allele A A, allele B G)?
**A.** Its value is “non-BB”.

**Q.** What about the “High QT, + test (number of individuals)” value (QT interval [2]; change threshold QT > 5 msec) of the same molecule?
**A.** Its value is 13.

**Q.** And the “Low QT, + test (number of individuals)” value (QT interval [2]; change threshold QT > 5 msec)?
**A.** The value was 0.

**Q.** What about the “High QT, − test (number of individuals)” value (QT interval [2]; change threshold QT > 5 msec) of the same molecule?
**A.** The value was 101.

**Q.** What about the “Low QT, − test (number of individuals)” value (QT interval [2]; change threshold QT > 5 msec) of the same molecule?
**A.** Its value is 64.

**Q.** What about the “Odds Ratio” value (QT interval [2]; change threshold QT > 15 msec) of the same molecule?
**A.** The value was 9.38.

**Q.** What about the “High QT, + test (number of individuals)” value (QT interval [2]; change threshold QT > 15 msec) of the same molecule?
**A.** The value was 11.

**Q.** And the “Low QT, + test (number of individuals)” value (QT interval [2]; change threshold QT > 15 msec)?
**A.** The value was 2.

**Q.** What about the “High QT, − test (number of individuals)” value (QT interval [2]; change threshold QT > 15 msec) of the same molecule?
**A.** Its value is 61.

**Q.** What about the “Low QT, − test (number of individuals)” value (QT interval [2]; change threshold QT > 15 msec) of the same molecule?
**A.** Its value is 104.

**Q.** What about the “Odds Ratio” value (QT interval [2]; change threshold QT > 30 msec) of the same molecule?
**A.** The value was 5.88.

**Q.** What about the “High QT, + test (number of individuals)” value (QT interval [2]; change threshold QT > 30 msec) of the same molecule?
**A.** The value was 6.

**Q.** What about the “Low QT, + test (number of individuals)” value (QT interval [2]; change threshold QT > 30 msec) of the same molecule?
**A.** Its value is 7.

**Q.** And the “High QT, − test (number of individuals)” value (QT interval [2]; change threshold QT > 30 msec)?
**A.** Its value is 21.

**Q.** What about the “Low QT, − test (number of individuals)” value (QT interval [2]; change threshold QT > 30 msec) of the same molecule?
**A.** Its value is 144.
